Read-outs that look alike come from different tables or passages of the source.
Columns and labels:
[1] = biological target: T1, PSMA (Homo sapiens (Human), UniProt Q04609); assay: NAALADase assay: PSMA inhibitory activity, fluorescence-based Amplex Red Glutamic Acid assay, lysates of LNCaP cell extracts; format: biochemical
Protocol: Briefly, lysates of LNCaP cell extracts (25 μL) were incubated with the inhibitor (12.5 μL) in the presence of 4 μM N-acetylaspartylglutamate (NAAG) (12.5 μL) for 120 min. The amount of the glutamate released by NAAG hydrolysis was measured by incubating with a working solution (50 μL) of the Amplex Red Glutamic Acid Kit for 60 min. […] Assays were performed in triplicate. Data analysis was performed using GraphPad Prism version 4.00 for Windows (GraphPad Software, San Diego, Calif.).

[2] = biological target: T1, PSMA; details: cited from earlier work; for blood pool and salivary / lacrimal gland uptake in clinical PET imaging: patients
[3] = biological target: T1, PSMA; details: from Chen, 2008; read-out: Ki, PSMA inhibition; cited from earlier work
[4] = Table 3, Cheng-Prusoff conversion, read-out: Ki

T1 sequence (Q04609 whole entry): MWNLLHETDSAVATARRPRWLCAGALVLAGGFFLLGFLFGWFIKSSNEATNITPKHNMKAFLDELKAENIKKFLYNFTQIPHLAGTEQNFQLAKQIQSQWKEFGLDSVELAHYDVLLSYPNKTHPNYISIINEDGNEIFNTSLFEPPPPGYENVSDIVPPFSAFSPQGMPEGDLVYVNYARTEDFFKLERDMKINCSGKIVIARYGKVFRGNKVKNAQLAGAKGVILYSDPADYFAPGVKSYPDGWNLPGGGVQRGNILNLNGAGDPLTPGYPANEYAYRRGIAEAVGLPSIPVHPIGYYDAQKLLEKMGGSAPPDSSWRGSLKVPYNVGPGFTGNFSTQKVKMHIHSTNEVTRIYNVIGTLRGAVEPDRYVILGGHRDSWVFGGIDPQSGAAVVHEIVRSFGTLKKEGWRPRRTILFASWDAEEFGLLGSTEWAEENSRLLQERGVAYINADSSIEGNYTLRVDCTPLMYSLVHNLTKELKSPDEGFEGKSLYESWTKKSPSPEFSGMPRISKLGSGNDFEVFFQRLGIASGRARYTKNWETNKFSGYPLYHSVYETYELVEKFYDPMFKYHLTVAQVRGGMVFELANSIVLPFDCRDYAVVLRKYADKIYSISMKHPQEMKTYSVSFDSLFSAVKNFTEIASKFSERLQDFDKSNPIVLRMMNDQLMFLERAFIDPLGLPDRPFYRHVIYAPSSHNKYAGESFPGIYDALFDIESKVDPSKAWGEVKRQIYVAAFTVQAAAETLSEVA

| SMILES | IC50 ([1]; Table 3) [nM] | Ki [1, 4] [nM] | further results |
| --- | --- | --- | --- |
| O=C(O)CC[C@H](NC(=O)O[C@@H](CCCCNC(=O)c1ccc(Cl)cc1F)C(=O)O)C(=O)O [XY-49] | 192 | 38 |  |
| O=C(O)CC[C@H](NC(=O)NC[C@@H](NC(=O)CCCNC(=O)c1ccc(-c2ccccc2)cc1F)C(=O)O)C(=O)O [XY-46] | 2 | 0.4 |  |
| COc1ccc(C(=O)NCCCC[C@H](OC(=O)N[C@@H](CCC(=O)O)C(=O)O)C(=O)O)cc1 [XY-27] | 100 | 21 |  |
| O=C(O)CC[C@H](NC(=O)O[C@H](CCNC(=O)c1ccc(F)cc1)C(=O)O)C(=O)O [XY-17] | 4900 | 980 |  |
| O=C(O)CC[C@H](NC(=O)O[C@@H](CCCCNC(=O)c1ccc(SCc2ccc(F)cc2)cc1)C(=O)O)C(=O)O [XY-39] | 46 | 9.3 |  |
| O=C(O)CC[C@H](NC(=O)N[C@@H](CSCc1ccc(I)cc1)C(=O)O)C(=O)O [DCIBC, reference compound] |  |  | Ki ([1]; Table 4, read-out: Ki): 0.03 nM |
| O=C(O)CC[C@H](NC(=O)NC[C@H](NC(=O)CCCNC(=O)c1ccc(F)cc1)C(=O)O)C(=O)O [XY-35] | 8000 | 1600 |  |
| O=C(O)CC[C@H](NC(=O)N[C@@H](CSCc1ccc([18F])cc1)C(=O)O)C(=O)O [[^18F]DCFBC] |  |  | blood pool and salivary / lacrimal gland uptake in clinical PET imaging [2]: persistent blood pool occupancy but low salivary gland uptake |
| O=C(O)CC[C@H](NC(=O)O[C@@H](CCCCNC(=O)c1ccc(-c2ccc(OCCF)cc2)cc1)C(=O)O)C(=O)O [XY-24] | 120 | 22 |  |
| CNC(=O)c1ccc(C(=O)NCCCC[C@H](OC(=O)N[C@@H](CCC(=O)O)C(=O)O)C(=O)O)cc1 [XY-30] | 1300 | 270 |  |
| COc1ccc2cc(C(=O)NCCCC[C@H](OC(=O)N[C@@H](CCC(=O)O)C(=O)O)C(=O)O)ccc2c1 [XY-22] | 104 | 20 |  |
| O=CO[C@@H](CNC(=O)N[C@@H](CCC(=O)O)C(=O)O)NC(=O)CCCNC(=O)c1ccc(I)cc1F [XY-44] |  |  | Ki ([1]; Table 4, read-out: Ki): 0.017 nM; Ki ([1]; read-out: Ki, PSMA inhibition): 0.02 nM |
| O=C(O)CC[C@H](NC(=O)O[C@@H](CCCCNC(=O)c1ccc(SCCF)cc1)C(=O)O)C(=O)O [XY-38] | 41 | 8.3 |  |
| O=C(O)CC[C@H](NC(=O)O[C@@H](CCCCNC(=O)c1ccc(I)cc1OCCCCNC(=O)c1ccc(I)cc1)C(=O)O)C(=O)O [XY-50] | 3800 | 770 |  |
| O=CO[C@@H](CNC(=O)N[C@@H](CCC(=O)O)C(=O)O)NC(=O)CCCNC(=O)c1ccc(F)cc1 [YC-I-26, reference compound] |  |  | Ki [3]: 0.25 nM; Ki ([1]; Table 4, read-out: Ki): 0.3 nM |
| CC(=O)Nc1ccc(C(=O)NCCCC[C@H](OC(=O)N[C@@H](CCC(=O)O)C(=O)O)C(=O)O)cc1 [XY-29] | 660 | 130 |  |

| SMILES | IC50 ([1]; Table 3) [nM] | Ki [1, 4] [nM] | further results |
| --- | --- | --- | --- |
| O=C(O)CC[C@H](NC(=O)O[C@@H](CCCCNC(=O)c1ccc2ccccc2c1)C(=O)O)C(=O)O [XY-21] | 60 | 12 |  |
| CSc1ccc(C(=O)NCCCC[C@H](OC(=O)N[C@@H](CCC(=O)O)C(=O)O)C(=O)O)cc1 [XY-28] | 24 | 4.8 |  |
| O=C(O)CC[C@H](NC(=O)O[C@@H](CCCCNC(=O)c1ccc(F)cc1)C(=O)O)C(=O)O [XY-20, (S)-2-(((((S)-1-carboxy-5-(4-fluorobenzamido)pentyl)oxy)carbonyl)amino)pentanedioic acid] | 210 | 42 | reduction in binding affinity compared to 9 (YC-I-26) [1]: more than 150 fold |
| O=C(O)CC[C@H](NC(=O)N[C@@H](CCCCNC(=O)Nc1ccc([123I])cc1)C(=O)O)C(=O)O [[^124I]-MIP-1095] |  |  | blood pool and salivary / lacrimal gland uptake in clinical PET imaging [2]: rapid clearance from the blood but high uptake in salivary and lacrimal glands |
| O=C(O)CC[C@H](NC(=O)O[C@@H](CCCCNC(=O)c1ccc(-c2ccccc2)cc1F)C(=O)O)C(=O)O [XY-42] | 86 | 13 |  |
| O=CO[C@@H](CNC(=O)N[C@@H](CCC(=O)O)C(=O)O)NC(=O)CCCNC(=O)c1ccc(C2=CCCCC2)cc1F [XY-45] |  |  | Ki ([1]; Table 4, read-out: Ki): 0.1 nM |
| O=CO[C@@H](CNC(=O)N[C@@H](CCC(=O)O)C(=O)O)NC(=O)CCCNC(=O)c1ccc(Br)cc1 [XY-59] |  |  | Ki ([1]; Table 4, read-out: Ki): 0.02 nM |
| O=C(O)CC[C@H](NC(=O)O[C@@H](CCNC(=O)c1ccc(F)cc1)C(=O)O)C(=O)O [XY-16] | 4500 | 900 |  |
| CSc1ccc(C(=O)NCCCC(=O)N[C@H](CNC(=O)N[C@@H](CCC(=O)O)C(=O)O)C(=O)O)cc1 [XY-40] | 1.3 | 0.26 |  |
| Cc1cc(Br)ccc1C(=O)NCCCC(=O)N[C@H](CNC(=O)N[C@@H](CCC(=O)O)C(=O)O)OC=O [XY-58] |  |  | Ki ([1]; Table 4, read-out: Ki): 0.036 nM; Ki ([1]; read-out: Ki, PSMA inhibition): 0.04 nM |
| O=C(O)CC[C@H](NC(=O)O[C@@H](CCCCNC(=O)c1ccc(I)cc1F)C(=O)O)C(=O)O [XY-43] | 1.6 | 0.32 |  |
| O=C(O)CC[C@H](NC(=O)O[C@@H](CCCCNC(=O)c1ccc(I)cc1)C(=O)O)C(=O)O [XY-26] | 4.3 |  | Ki ([1]; read-out: Ki, PSMA inhibition): 0.9 nM |
| COc1ccc(-c2ccc(C(=O)NCCCC[C@H](OC(=O)N[C@@H](CCC(=O)O)C(=O)O)C(=O)O)cc2)cc1 [XY-23] | 30 | 6 |  |
| O=C(O)CC[C@H](NC(=O)N[C@@H](CCCCNC(=O)Nc1ccc([131I])cc1)C(=O)O)C(=O)O [[^131I]-MIP-1095] |  |  | dose-limiting organs from absorbed dose estimates ([2]; Zechmann, 2014): salivary glands, lower large intestinal wall, and kidneys |
| O=C(O)CC[C@H](NC(=O)NC[C@H](NC(=O)c1ccc(F)cc1)C(=O)O)C(=O)O [XY-34] | 43000 | 9.7 |  |
